{"source": "patent US12458614B2", "about": "“Therapeutic agents for improved mobility and cognitive function and for treating neurodegenerative diseases and lysosomal storage disorders” (priority 2017, dated 2025)", "key": {"[1]": {"system": "patients with downbeat nystagmus", "experiment": "Case studies, downbeat nystagmus", "assay_type": "in vivo, human", "conditions": "downbeat nystagmus Patients 1 (10 mg twice daily, four weeks) and 2"}, "[2]": {"system": "patient with progressive gait disorder", "experiment": "Case study Example 26, quantitative gait analysis", "assay_type": "in vivo, human", "conditions": "treatment with L-Dopa"}, "[3]": {"system": "patient with Lewy Body dementia", "experiment": "Case study, Lewy Body dementia", "assay_type": "in vivo, human", "conditions": "Levodopa 100 mg 4× daily and Quetiapin 25 mg at night", "description": "The patient started taking acetyl-leucine (3 g/day for one week; 5 g/day thereafter) and was evaluated after four weeks. […] Medication was reduced to 3 g/day, and the patient was instructed to stop medication about two weeks later."}, "[4]": {"system": "patient with corticobasal syndrome", "experiment": "Case study, corticobasal syndrome", "assay_type": "in vivo, human", "conditions": "treatment with L-Dopa", "description": "Gait analysis was performed before treatment commenced."}, "[5]": {"system": "patients with multiple system atrophy Parkinson type (MSA-P)", "experiment": "Case studies, multiple system atrophy Parkinson type", "assay_type": "in vivo, human", "conditions": "MSA-P Patient 1, 100/25 mg 3× daily"}, "[6]": {"system": "patient with frontotemporal dementia with parkinsonism", "experiment": "Case study, frontotemporal dementia with parkinsonism", "assay_type": "in vivo, human", "conditions": "treatment with L-Dopa and Ropinirol", "from_the_text": "After approximately one month of acetyl-leucine treatment, medication was stopped and the patient was re-examined 13 days later."}, "[7]": {"system": "patients with progressive supranuclear palsy", "experiment": "Case studies, progressive supranuclear palsy", "assay_type": "in vivo, human", "conditions": "individual PSP patients 1 to 4", "description": "After 27 days of acetyl-leucine treatment, medication was stopped and the patient was re-examined 60 days later. […] Gait analysis was performed before treatment commenced. After 17 days of treatment, medication was stopped and the patient was re-examined 4 days later. […] Gait analysis was performed before treatment commenced. After three weeks of treatment, medication was stopped and the patient was re-examined."}, "[8]": {"system": "patients with multiple system atrophy Parkinson type (MSA-P)", "experiment": "Case studies, multiple system atrophy Parkinson type", "assay_type": "in vivo, human", "conditions": "MSA-P Patient 3", "from_the_text": "Medication was stopped. […] The patient evaluated after one month on acetyl-DL-leucine. […] Episodes of mental confusion completely disappeared. The patient's cognitive structure seemed much clearer and straighter. […] The patient's spouse supported continuing the medication."}, "[9]": {"system": "person with balance disorder/senile gait disorder", "experiment": "Case study Example 23", "assay_type": "in vivo, human", "conditions": "treatment with L-Dopa"}, "[10]": {"system": "patients with amyotrophic lateral sclerosis (ALS)", "experiment": "Case studies, amyotrophic lateral sclerosis", "assay_type": "in vivo, human", "conditions": "ALS Patient 1", "from_the_text": "The results were documented by video."}, "[11]": {"system": "rat model of an acute unilateral labyrinthectomy", "conditions": "acute unilateral labyrinthectomy (Gunther 2015); cited from earlier work"}}, "note": "Entries after “also recorded” stand apart in the source; their conditions may differ."}
{"smiles": "Nc1ccncc1", "note": "[4-aminopyridine]", "values": [{"measurement": "Benefit of prior medication", "setting": "[1]", "result": "did not give rise to any benefit"}, {"measurement": "Benefit of prior medication", "setting": "[1]; listed as Fampyra®", "result": "did not benefit"}]}
{"smiles": "N[C@@H](Cc1ccc(O)c(O)c1)C(=O)O", "note": "[L-Dopa]", "values": [{"measurement": "Response to prior medication", "setting": "[2]", "result": "No improvement"}, {"measurement": "Response to prior medication", "setting": "[3]", "result": "improved the symptomatology"}, {"measurement": "Response to prior medication", "setting": "[4]", "result": "no improvement"}, {"measurement": "Levodopa response", "setting": "[5]", "result": "discreet Levodopa response"}, {"measurement": "Response to prior medication", "setting": "[6]", "result": "little improvement"}, {"measurement": "Levodopa response", "setting": "[7]", "result": "little improvement"}, {"measurement": "Levodopa response", "setting": "[7]; listed as levodopa", "result": "no levodopa response; also recorded: slight levodopa response"}, {"measurement": "Tolerability of Levodopa therapy", "setting": "[8]", "result": "suspended due to side effects"}, {"measurement": "Response to prior medication", "setting": "[9]", "result": "no improvement"}]}
{"smiles": "OCCOCCN1CCN(C2=Nc3ccccc3Sc3ccccc32)CC1", "note": "[Quetiapin]", "values": [{"measurement": "Response to prior medication", "setting": "[3]", "result": "improved the symptomatology"}]}
{"smiles": "Nc1nc2ccc(OC(F)(F)F)cc2s1", "note": "[Riluzol]", "values": [{"measurement": "Clinical symptomatology under prior medication", "setting": "[10]", "result": "remained unchanged"}]}
{"smiles": "CCCN(CCC)CCc1cccc2c1CC(=O)N2", "note": "[Ropinirol]", "values": [{"measurement": "Response to prior medication", "setting": "[6]", "result": "little improvement"}]}
{"smiles": "CC(=O)N[C@@H](CC(C)C)C(=O)O", "note": "[acetyl-L-leucine]", "values": [{"measurement": "postural compensation", "setting": "[11]", "result": "significant effect"}]}
